Earlier results in patent US6344433B1, “Long-acting disinfectant and its preparation method” (priority 1999, dated 2002).

Settings: crystal powder

## Oc1cc(Cl)ccc1Oc1ccc(Cl)cc1Cl [HD244, 2,4,4′-trichloro-2′-hydroxy diphenyl ether]
  solubility in water: hardly soluble in water
